In patent US20070161691A1, “Modified-protein formation inhibitor” (TOKAI UNIVERSITY, priority 2003, published 2007):

Assays:
pentosidine formation = assay: AGEs (pentosidine) formation inhibiting effect in plasma from dialysis patients; type: biochemical, human; conditions: for Pentosidine formation: 5 mM; for pentosidine formation suppression: plasma from the patients with dialysis
Method: Before dialysis, blood samples were obtained from non-diabetic volunteer dialysis patients with renal failure, and fresh heparinized plasma samples were prepared therefrom Pooled plasma obtained from several patients (n=3˜5) was served to the test. 4-(5-phenyltetrazol-1-ylmethyl)-morpholine (Compound 1), 5-methyl-1-(5-phenyltetrazol-1-ylmethyl)-3a,6a-dihydro-1H-pyrrolo[3,4-d][1,2,3]triazole-4,6-dione (Compound 2) or (5-phenyltetrazol-1-yl)methanol (Compound 3) adjusted to a designed concentration ([…]), in DMSO solution (100 μl), was added to the pooled plasma (900 μl) and incubated at 37° C. for 7 days in the presence of air. Then, the amount of pentosidine was measured to estimate the suppressive effect on the glycation of protein.
Measurement of the amount of pentosidine was made as follows: to each incubated sample (50 μL) was added an equal volume of 10% trichloroacetic acid, followed by centrifugation at 5000 g for 5 minutes; after removal of the supernatant, the pellet was washed by 5% trichloroacetic acid (300 μL); the pellet was dried under reduced pressure and then subjected to hydrolysis in 6N HCI solution (100 μL) at 110° C. under nitrogen atmosphere for 16 hours; to the hydrolysate, 5N NaOH (100 μL) and 0.5 M phosphate buffer (pH 7.4) (200 μL) were added, followed by filtration through a porefilter with a pore size of 0.5 μm and dilution with PBS. The concentration of free pentosidine was determined by reversed-phase HPLC using a fluorescence detector (RF-10A, Shimazu Seisakusho) (Miyata, T. et al.: Proc. Natl. Acad. Sci. USA, 93, 2353-2358, 1996). The effluent was monitored at 335/385 nm of excitation/emission wavelength. Synthetic pentosidine was used as the standard. The detection limit of pentosidine was 0.1 pmol/mg protein.
The inhibiting effect was estimated by comparing with positive control (aminoguanidine and pyridoxamine (Sigma)) reacted in the same manner as 4-(5-phenyltetrazol-1-yl-methyl)-morpholine (Compound 1), 5-methyl-1-(5-phenyltetrazol-1-ylmethyl)-3a,6a-dihydro-1H-pyrrolo[3,4-d][1,2,3]triazole-4,6-dione (Compound 2) and (5-phenyltetrazol-1-yl)methanol (Compound 3).

[1] = Vitamin B6 (PLP; pyridoxal phosphate) trapping; type: biochemical; conditions: 500 μM compound, 50 μM PLP, PBS
Method: To a solution of vitamin B6, the compound of this invention is added, and after a certain period of time, an amount of vitamin B6 remained is determined.
4-(5-phenyltetrazol-1-ylmethyl)-morpholine (Compound 1), 5-methyl-1-(5-phenyltetrazol-1-ylmethyl)-3a,6a-dihydro-1H-pyrrolo[3,4-d][1,2,3]triazol-4,6-dione (Compound 2) and (5-phenyltetrazol-1-yl)methanol (Compound 3) as well as aminoguanidine as the positive control were each dissolved in DMSO in a designed concentration to make a sample solution. DMSO itself was used as the negative control. In addition, pyridoxal phosphate (PLP) was dissolved in purified-water to make a designed concentration. PBS was added to each of the test compound, the positive control and the negative control, to make a final concentration of 500 μM. The PLP solution as above prepared was added to each of the resultant solution to make a final concentration of 50 μM for preparation of the PLP reaction solution. Using HPLC, the amount of PLP in the PLP reaction solution was determined after 0.1 and 10 hours, from which the PLP trapping amount of each test compound was ascertained.
The analysis of PLP using HPLC was carried out by separation with reverse-phase C18 column (4.6×250 mm, 5 μm; Waters) and by using a fluorescence detector (RF-10A; Shimazu Seisakusho; excitation wavelength, 300 nm and fluorescence wavelength, 400 nm). In the mobile phase, the flow rate was 0.6 mL/min and the concentration of buffer B was varied from 0% to 3% in 25 minutes (buffer A: 0.10% trifluoroacetic acid; buffer B: 80% acetonitrile containing 0.08% trifluoroacetic acid).

[2] = Suppressing effect on the nitration of tyrosine with peroxynitrite; type: biochemical; conditions: in comparison with pyridoxamine as positive control; 0.1, 0.5, 2.5 and 5 mM
Method: According to the method of Pannala, A.S. et al. (Free Radic. Biol. Med., 24:594-606, 1998), the examination was carried out. Namely, tyrosine (final concentration: 100 μM), the test compound (final concentration: 0.1, 0.5, 2.5 and 5 mM) and peroxynitrite (Dojin Kagaku) (final concentration: 500 μM) were dissolved in 200 mM of phosphate buffer (pH7.4) (liquid volume 500 μL) and incubated at 37° C. for 15 minutes. After incubation, the nitrotyrosine formation was determined with HPLC in the following manner: after a predifined time, the reaction mixture (20 μL) was injected onto HPLC, separation was made with C18 column (4.6×250 mm, 5 μm: Waters) and the detection was effected using a ultraviolet detector (RF-10A: Shimazu Seisakusho) at a wavelength of 280 nm. In the mobile phase, the flow rate was 0.6 mL/min and the concentration of buffer B was varied from 5.0% to 30% in 30 minutes (buffer A: 0.10% trifluoroacetic acid; buffer B: 80% acetonitrile containing 0.08% trifluoroacetic acid). 4-Hydroxy-3-nitrobenzoic acid (100 μM) was used as the internal standard.

[3] = Suppressive effect on the hydroxylation of phenylalanine with hydroxy radical; type: biochemical; conditions: in comparison with pyridoxamine as positive control; 0.1, 0.5, 2.5 mM
Method: Phenylalanine (final concentration: 1 mM), test compound (final concentration: 0.1, 0.5, 2.5 mM), hydrogen peroxide (final concentration: 5 mM) and cupric sulfate (final concentration: 0.1 mM) were dissolved in 200 mM of phosphate buffer (pH7.4) (total volume 500 μL), followed by incubation at 37° C. for 4 hours. Then, DTPA (final concent-ration: 1 mM) and 260 unit of catalase were added thereto to interrupt the reaction. The amounts of o-tyrosine and m-tyrosine formed were determined by HPLC in the following manner: after a designed period of time, the reaction mixture was diluted to 100 folds; 20 μL of the dilution was injected onto HPLC, separation was made with C18 column (4.6×250 mm, 5 μm; Nomura Kagaku) and detection was effected using a fluorescence detector (RF-10A: Shimazu Seisakusho) under the condition of an excitation wavelength of 275 nm and a fluorescence wavelength of 305 nm. In the mobile phase, the flow rate was 0.6mL/min and the concentration of buffer B was varied from 6.5% to 10% in 25 minutes (buffer A: 0.10% trifluoroacetic acid; buffer B: 80% acetonitrile containing 0.08% trifluoroacetic acid).

[4] = Absorbability examination, oral administration to rat; type: in vivo; conditions: 50 mg/kg oral
Method: For 4-(5-phenyltetrazol-1-yl methyl)-morpholine (compound 1) and (5-phenyltetrazol-1-yl)methanol (compound 3), their sorbability were examined. Each compounds are suspended in carboxymethyl cellulose in given concentration to prepare sample for oral administration. Then each samples were administered in the ratio of 50 mg/kg to rat using sonde. Five Wister rats (male, 8 weeks aged, closed colony) were used every one group. At one hour, 2 hours, 6 hours and 24 hours after the administration of compound, blood was obtained. The obtained blood samples were immediately cetrifuged at 3000 rpm for 15 minutes to obtain the blood plasma and the concentration of the compound in the specimen was quantitated by HPLC. Briefly, to 100 μL of obtained blood plasma was added to 200 μL of acetonitrile, centrifuged at 12000 rpm for 10 minutes to obtain supernatant, deproteinized and served to HPLC. The measuring condition of HPLC was selected from suitable condition for each compounds to separate and quantify. For example, in case of 4-(5-phenyltetrazol-1-yl methyl)-morpholine (compound 1), separated with reverse-phase C18 column (4.6×250 mm, 5 μm: Waters), and then detected using ultraviolet detector (RF-10A: Shimazu Seisakusho) at 240 nm of wavelength to quantify. In mobile phase, the flow rate is 0.8 mL/min and solvent is water: acetonitrile.

[5] = Acute toxicity examination, single oral administration to mouse; conditions: male, in vivo, ICR mice, single oral administration
Method: (§1) For 4-(5-phenyltetrazol-1-ylmethyl)-morpholine (compound 1) and (5-phenyltetrazol-1-yl) methanol (compound 3), acute toxicity test was carried out using mice. Each compounds were suspended in carboxymethyl cellulose in given concentration to prepare sample for oral administration. Then single oral administration was done to mouse. The dose is 100, 250, 500, 1000 and 2000 mg/kg. Five ICR mice (male , 8 weeks aged, closed colony) were used in each group. The test material was administrated to determine LD50 value.

ICR mice = assay: as above; conditions: in vivo, po
Method: as §1

[6] = plasma from dialysis patients, 37° C., 7 days, DMSO negative control 2.960

PLP trapping [1]	SMILES	Pentosidine formation (pentosidine formation; [6]) [nmol/mL]	pentosidine formation suppression (pentosidine formation)	Pentosidine formation (pentosidine formation; same manner as Table 2) [nmol/mL]	other results
remarkable PLP trapping	N=C(N)NN [Aminoguanidine, aminoguanidine, reference compound]	2.604			
none	CN1C(=O)C2N=NN(Cn3nnnc3-c3ccccc3)C2C1=O (stereo not drawn) [Compound 2, 5-methyl-1-(5-phenyltetrazol-1-ylmethyl)-3a,6a-dihydro-1H-pyrrolo[3,4-d][1,2,3]triazole-4,6-dione]	0.320	suppressed remarkably		nitrotyrosine formation, suppression [2]: suppressed remarkably; hydroxylation of phenylalanine with hydroxy radical, suppression [3]: suppressed remarkably
	c1ccc(-c2nnnn2CN2CCNCC2)cc1 [Compound 4, 1-(5-phenyltetrazol-1-ylmethyl)-piperazine]		suppressed remarkably	0.234	
	CN1CCN(Cn2nnnc2-c2ccccc2)CC1 [Compound 5, 1-methyl-4-(5-phenyltetrazol-1-ylmethyl)-piperazine]		suppressed remarkably	0.201	
	c1ccc(-c2nnnn2CN2CCSCC2)cc1 [Compound 6, 4-(5-phenyltetrazol-1-ylmethyl)-thiomorpholine]		suppressed remarkably	0.149	
	c1ccc(-c2nnnn2CN2CCN(Cn3nnnc3-c3ccccc3)CC2)cc1 [Compound 7, 1,4-bis-(5-phenyltetrazol-1-ylmethyl)-piperazine]		suppressed remarkably	0.103	
	Cc1ncc(CO)c(CN)c1O [Pyridoxamine, pyridoxamine, reference compound]	2.280			

SMILES	PLP trapping [1]	Pentosidine formation (pentosidine formation; [6]) [nmol/mL]	pentosidine formation suppression (pentosidine formation)	Pentosidine formation (pentosidine formation; same manner as Table 2) [nmol/mL]	other results
OCn1nnnc1-c1ccccc1 [Compound 3, (5-phenyltetrazol-1-yl)-methanol]	none	0.026	suppressed remarkably		sorbability (plasma concentration after oral administration) [4]: good sorbability; nitrotyrosine formation, suppression [2]: suppressed remarkably; hydroxylation of phenylalanine with hydroxy radical, suppression [3]: suppressed remarkably; LD50 [5]: > 2000 mg/kg; toxicity (ICR mice): lower toxicity
